Reference: US20250136578A1 (Kolm Therapeutics Inc., priority 2023, published 2025)
Read-outs that look alike come from different tables or passages of the source.

How the values were obtained:
VCaP cells = experiment: VCaP growth inhibition assay (CTG); assay type: cell-based; settings: Homo sapiens, 216 h, 30 pM R1881, 9 days
In short: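 VCaP cells in phenol red-free DMEM with 5% charcoal-stripped serum were stimulated with 30 pM R1881 (final) and treated with compound from 100 nM to 10 fM final (1:5 dilutions) for 9 days at 37 °C. Viability was read by CellTiter-Glo luminescence, and IC50 came from 4-parameter logistic fits.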

AR / CBP ternary complex = AR / CBP ternary complex (Homo sapiens, UniProt P10275+Q92793); experiment: Ternary complex formation assay (sandwich ELISA, AR capture, CBP antibody detection) in VCaP cell lysates; assay type: cell-based
Sequence of AR / CBP ternary complex (P10275 whole entry): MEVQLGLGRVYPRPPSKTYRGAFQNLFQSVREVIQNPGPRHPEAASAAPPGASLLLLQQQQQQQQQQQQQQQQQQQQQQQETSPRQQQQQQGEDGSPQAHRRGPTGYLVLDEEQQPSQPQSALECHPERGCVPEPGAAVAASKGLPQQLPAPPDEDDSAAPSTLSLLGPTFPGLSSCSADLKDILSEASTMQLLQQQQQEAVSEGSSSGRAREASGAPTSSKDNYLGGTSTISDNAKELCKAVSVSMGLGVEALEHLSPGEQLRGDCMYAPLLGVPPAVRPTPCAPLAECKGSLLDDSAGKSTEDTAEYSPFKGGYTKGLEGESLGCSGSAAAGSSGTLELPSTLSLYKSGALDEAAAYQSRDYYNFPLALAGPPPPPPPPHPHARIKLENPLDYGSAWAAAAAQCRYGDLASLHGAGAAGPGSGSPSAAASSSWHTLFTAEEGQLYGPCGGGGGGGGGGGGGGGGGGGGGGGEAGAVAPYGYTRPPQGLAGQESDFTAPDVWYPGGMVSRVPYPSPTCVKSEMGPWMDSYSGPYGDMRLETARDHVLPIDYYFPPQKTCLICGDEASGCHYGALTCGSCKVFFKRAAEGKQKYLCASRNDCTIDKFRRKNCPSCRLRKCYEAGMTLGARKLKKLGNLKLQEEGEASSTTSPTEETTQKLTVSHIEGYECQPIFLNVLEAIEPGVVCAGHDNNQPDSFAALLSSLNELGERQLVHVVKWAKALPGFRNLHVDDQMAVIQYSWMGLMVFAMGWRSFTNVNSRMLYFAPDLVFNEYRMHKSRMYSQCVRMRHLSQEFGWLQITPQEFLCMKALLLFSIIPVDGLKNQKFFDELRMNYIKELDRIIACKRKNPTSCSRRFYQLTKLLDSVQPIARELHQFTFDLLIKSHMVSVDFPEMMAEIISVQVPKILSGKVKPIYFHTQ
Sequence of AR / CBP ternary complex (Q92793 2-2442): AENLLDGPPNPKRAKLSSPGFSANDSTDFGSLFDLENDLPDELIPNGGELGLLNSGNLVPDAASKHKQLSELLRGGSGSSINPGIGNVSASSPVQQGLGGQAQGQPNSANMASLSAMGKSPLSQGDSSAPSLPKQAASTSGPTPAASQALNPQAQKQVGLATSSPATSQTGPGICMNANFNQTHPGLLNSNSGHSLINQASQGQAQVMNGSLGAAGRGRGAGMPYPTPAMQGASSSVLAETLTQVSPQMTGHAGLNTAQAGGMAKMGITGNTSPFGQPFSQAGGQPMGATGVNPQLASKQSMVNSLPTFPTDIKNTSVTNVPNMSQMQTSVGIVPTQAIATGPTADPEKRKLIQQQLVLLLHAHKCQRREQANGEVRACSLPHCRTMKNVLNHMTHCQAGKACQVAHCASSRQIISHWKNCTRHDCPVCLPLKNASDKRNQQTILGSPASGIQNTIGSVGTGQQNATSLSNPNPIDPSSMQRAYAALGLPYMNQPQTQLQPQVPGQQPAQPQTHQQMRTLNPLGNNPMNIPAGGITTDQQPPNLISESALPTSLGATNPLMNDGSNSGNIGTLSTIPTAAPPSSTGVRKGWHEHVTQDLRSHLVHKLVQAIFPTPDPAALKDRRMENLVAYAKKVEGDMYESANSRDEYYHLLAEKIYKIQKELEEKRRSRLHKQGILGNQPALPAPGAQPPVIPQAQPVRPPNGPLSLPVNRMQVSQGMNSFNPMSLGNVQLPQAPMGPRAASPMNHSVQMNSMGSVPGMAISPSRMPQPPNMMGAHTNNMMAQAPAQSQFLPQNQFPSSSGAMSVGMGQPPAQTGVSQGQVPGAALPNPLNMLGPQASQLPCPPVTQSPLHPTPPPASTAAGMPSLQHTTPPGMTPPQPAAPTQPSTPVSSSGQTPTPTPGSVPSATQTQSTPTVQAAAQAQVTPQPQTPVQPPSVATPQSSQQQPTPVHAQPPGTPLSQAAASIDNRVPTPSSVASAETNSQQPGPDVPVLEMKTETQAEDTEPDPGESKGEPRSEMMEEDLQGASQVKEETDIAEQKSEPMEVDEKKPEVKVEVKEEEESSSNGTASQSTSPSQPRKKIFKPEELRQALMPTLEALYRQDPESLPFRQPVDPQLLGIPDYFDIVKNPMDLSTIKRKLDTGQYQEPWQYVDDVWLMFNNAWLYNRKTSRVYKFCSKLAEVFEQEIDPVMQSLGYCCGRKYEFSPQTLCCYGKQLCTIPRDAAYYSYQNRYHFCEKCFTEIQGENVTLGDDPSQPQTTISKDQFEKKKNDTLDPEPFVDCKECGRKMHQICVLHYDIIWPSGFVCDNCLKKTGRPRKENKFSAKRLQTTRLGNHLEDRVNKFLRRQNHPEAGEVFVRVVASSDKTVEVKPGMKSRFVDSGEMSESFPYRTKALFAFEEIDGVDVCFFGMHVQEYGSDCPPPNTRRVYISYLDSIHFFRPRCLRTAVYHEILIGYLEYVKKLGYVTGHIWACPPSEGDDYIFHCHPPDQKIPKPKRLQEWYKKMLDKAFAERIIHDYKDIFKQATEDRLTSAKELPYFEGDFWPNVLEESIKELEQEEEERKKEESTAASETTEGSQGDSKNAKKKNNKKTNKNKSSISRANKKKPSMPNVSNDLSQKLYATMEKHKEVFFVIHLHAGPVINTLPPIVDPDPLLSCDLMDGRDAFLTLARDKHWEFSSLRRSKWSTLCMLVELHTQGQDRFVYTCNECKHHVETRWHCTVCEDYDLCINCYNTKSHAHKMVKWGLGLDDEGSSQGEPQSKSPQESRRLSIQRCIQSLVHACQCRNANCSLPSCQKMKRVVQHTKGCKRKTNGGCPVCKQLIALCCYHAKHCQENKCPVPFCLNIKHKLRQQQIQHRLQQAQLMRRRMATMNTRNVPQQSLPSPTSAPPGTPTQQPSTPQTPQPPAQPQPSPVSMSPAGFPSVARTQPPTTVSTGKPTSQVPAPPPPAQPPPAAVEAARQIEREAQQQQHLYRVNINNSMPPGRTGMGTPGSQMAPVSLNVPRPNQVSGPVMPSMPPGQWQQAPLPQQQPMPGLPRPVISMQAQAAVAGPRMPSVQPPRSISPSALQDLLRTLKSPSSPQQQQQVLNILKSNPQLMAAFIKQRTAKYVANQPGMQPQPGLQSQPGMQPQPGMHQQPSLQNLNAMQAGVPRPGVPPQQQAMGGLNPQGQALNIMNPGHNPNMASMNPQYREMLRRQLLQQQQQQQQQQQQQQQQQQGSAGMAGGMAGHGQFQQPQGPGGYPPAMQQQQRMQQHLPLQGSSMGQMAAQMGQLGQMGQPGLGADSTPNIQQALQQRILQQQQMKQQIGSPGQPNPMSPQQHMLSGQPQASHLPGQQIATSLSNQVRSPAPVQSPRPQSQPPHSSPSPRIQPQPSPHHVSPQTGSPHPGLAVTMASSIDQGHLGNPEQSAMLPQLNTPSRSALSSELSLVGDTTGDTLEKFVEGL
In short: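 VCaP cells in 5% charcoal-stripped FBS were cultured ≥3 days and then given bifunctional compound for 1.5 h. Lysates went onto AR-antibody-coated plates. Bound CBP (or p300) was detected with a rabbit antibody plus HRP anti-rabbit, using QuantaRed chemifluorescence (ex 570/em 585) read immediately, at 5 min and at 15 min.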

[1] = treated 1.5 hours, rabbit CBP or p300 antibody detection, average, read-out: Average Ternary Complex

Compound | IC50 (VCaP cells) [nM] | EC50 (AR / CBP ternary complex; [1]) [nM] | EC50 (AR / CBP ternary complex; read-out: Average Ternary Complex, treated 1.5 hours, rabbit CBP or p300 antibody detection) [nM]
CC(=O)N1CCc2c(c(N3CCCc4cc(-c5cnn(C)c5)c(C(F)F)cc43)nn2C2CCN(C3CCN(c4ccc(C(=O)N[C@H]5CC[C@H](Oc6ccc(C#N)c(Cl)c6)CC5)nn4)CC3(F)F)CC2)C1 (some centres unmarked) [Compound 198, 6-[4-[4-[5-acetyl-3-[7-(difluoromethyl)-6-(1-methylpyrazol-4-yl)-3,4-dihydro-2H-quinolin-1-yl]-6,7-dihydro-4H-pyrazolo[4,3-c]pyridin-1-yl]-1-piperidyl]-3,3-difluoro-1-piperidyl]-N-[4-(3-chloro-4-cyano-phenoxy)cyclohexyl]pyridazine-3-carboxamide] | ≤ 0.1 | < 1 | 
CC(=O)N1CCc2c(c(N3CCCc4cc(-c5cnn(C)c5)c(C(F)F)cc43)nn2C2CCN([C@@H]3CCN(c4ccc(C(=O)N[C@H]5CC[C@H](Oc6ccc(C#N)c(Cl)c6)CC5)nn4)C[C@@H]3C)CC2)C1 [Compound 200] | ≤ 0.1 | < 1 | 
CC(=O)N1CCc2c(c(N3CCCc4cc(-c5cnn(C)c5)c(C(F)F)cc43)nn2C2CCN(C3(C)CCN(c4ccc(C(=O)N[C@H]5CC[C@H](Oc6ccc(C#N)c(Cl)c6)CC5)nn4)CC3)CC2)C1 [Compound 201, 6-[4-[4-[5-acetyl-3-[7-(difluoromethyl)-6-(1-methylpyrazol-4-yl)-3,4-dihydro-2H-quinolin-1-yl]-6,7-dihydro-4H-pyrazolo[4,3-c]pyridin-1-yl]-1-piperidyl]-4-methyl-1-piperidyl]-N-[4-(3-chloro-4-cyano-phenoxy)cyclohexyl]pyridazine-3-carboxamide] | ≤ 0.1 | < 1 | 
CC(=O)N1CCc2c(c(N3CCCc4cc(-c5cnn(C)c5)c(C(F)F)cc43)nn2[C@H]2CC[C@@H](OC3CCN(c4ccc(C(=O)N[C@H]5CC[C@H](Oc6ccc(C#N)c(Cl)c6)CC5)nn4)CC3)CC2)C1 [Compound 204, 6-[4-[4-[5-acetyl-3-[7-(difluoromethyl)-6-(1-methylpyrazol-4-yl)-3,4-dihydro-2H-quinolin-1-yl]-6,7-dihydro-4H-pyrazolo[4,3-c]pyridin-1-yl]cyclohexoxy]-1-piperidyl]-N-[4-(3-chloro-4-cyano-phenoxy)cyclohexyl]pyridazine-3-carboxamide] | ≤ 0.1 | < 1 | 
CC(=O)N1CCc2c(c(N3CCCc4cc(-c5cnn(C)c5)c(C(F)F)cc43)nn2[C@H]2CC[C@H](OC3CCN(c4ccc(C(=O)N[C@H]5CC[C@H](Oc6ccc(C#N)c(Cl)c6)CC5)nn4)CC3)CC2)C1 [Compound 205, 6-[4-[4-[5-acetyl-3-[7-(difluoromethyl)-6-(1-methylpyrazol-4-yl)-3,4-dihydro-2H-quinolin-1-yl]-6,7-dihydro-4H-pyrazolo[4,3-c]pyridin-1-yl]cyclohexoxy]-1-piperidyl]-N-[4-(3-chloro-4-cyano-phenoxy)cyclohexyl]pyridazine-3-carboxamide] | ≤ 0.1 | < 1 | 
CC(=O)N1CCc2c(c(N3CCCc4cc(-c5cnn(C)c5)c(C(F)F)cc43)nn2C2CCN(C3CN(c4ccc(C(=O)N[C@H]5CC[C@H](Oc6ccc(C#N)c(Cl)c6)CC5)nn4)C3)CC2)C1 [Compound 206, 6-[3-[4-[5-acetyl-3-[7-(difluoromethyl)-6-(1-methylpyrazol-4-yl)-3,4-dihydro-2H-quinolin-1-yl]-6,7-dihydro-4H-pyrazolo[4,3-c]pyridin-1-yl]-1-piperidyl]azetidin-1-yl]-N-[4-(3-chloro-4-cyano-phenoxy)cyclohexyl]pyridazine-3-carboxamide] | ≤ 0.1 | < 1 | 
CC(=O)N1CCc2c(c(N3CCCc4cc(-c5cnn(C)c5)c(C(F)F)cc43)nn2C2CCC3(CC2)CC(N2CCN(c4ccc(C(=O)N[C@H]5CC[C@H](Oc6ccc(C#N)c(Cl)c6)CC5)nn4)CC2)C3)C1 (some centres unmarked) [Compound 208, 6-[4-[7-[5-acetyl-3-[7-(difluoromethyl)-6-(1-methylpyrazol-4-yl)-3,4-dihydro-2H-quinolin-1-yl]-6,7-dihydro-4H-pyrazolo[4,3-c]pyridin-1-yl]spiro[3.5]nonan-2-yl]piperazin-1-yl]-N-[4-(3-chloro-4-cyano-phenoxy)cyclohexyl]pyridazine-3-carboxamide] | ≤ 0.1 |  | < 1
CC(=O)N1CCc2c(c(N3CCCc4cc(-c5cnn(C)c5)c(C(F)F)cc43)nn2[C@H]2CC[C@H](CN3CCN(c4ccc(C(=O)N[C@H]5CC[C@H](Oc6ccc(C#N)c(Cl)c6)CC5)nn4)CC3)CC2)C1 [Compound 209, 6-[4-[[4-[5-acetyl-3-[7-(difluoromethyl)-6-(1-methylpyrazol-4-yl)-3,4-dihydro-2H-quinolin-1-yl]-6,7-dihydro-4H-pyrazolo[4,3-c]pyridin-1-yl]cyclohexyl]methyl]piperazin-1-yl]-N-[4-(3-chloro-4-cyano-phenoxy)cyclohexyl]pyridazine-3-carboxamide] | ≤ 0.1 | < 1 | 
CC(=O)N1CCc2c(c(N3CCCc4cc(-c5cnn(C)c5)c(C(F)F)cc43)nn2[C@H]2CC[C@@H](CN3CCN(c4ccc(C(=O)N[C@H]5CC[C@H](Oc6ccc(C#N)c(Cl)c6)CC5)nn4)CC3)CC2)C1 [Compound 210, 6-[4-[[4-[5-acetyl-3-[7-(difluoromethyl)-6-(1-methylpyrazol-4-yl)-3,4-dihydro-2H-quinolin-1-yl]-6,7-dihydro-4H-pyrazolo[4,3-c]pyridin-1-yl]cyclohexyl]methyl]piperazin-1-yl]-N-[4-(3-chloro-4-cyano-phenoxy)cyclohexyl]pyridazine-3-carboxamide] | ≤ 0.1 | < 1 | 
CC(=O)N1CCc2c(c(N3CCCc4cc(-c5ccc(N6CC(N7CCN(c8ccc(C(=O)N[C@H]9CC[C@H](Oc%10ccc(C#N)c(Cl)c%10)CC9)nn8)CC7)C6)nc5)c(C(F)F)cc43)nn2C2CCOCC2)C1 [Compound 216] | ≤ 0.1 | < 1 | 
CC(=O)N1CCc2c(c(N3CCCc4cc(-c5cnn(C)c5)c(C(F)F)cc43)nn2C2CCN(CC3C(C)CN(c4ccc(C(=O)N[C@H]5CC[C@H](Oc6ccc(C#N)c(Cl)c6)CC5)nn4)CC3C)CC2)C1 (some centres unmarked) [Compound 217, 6-[4-[[4-[5-acetyl-3-[7-(difluoromethyl)-6-(1-methylpyrazol-4-yl)-3,4-dihydro-2H-quinolin-1-yl]-6,7-dihydro-4H-pyrazolo[4,3-c]pyridin-1-yl]-1-piperidyl]methyl]-3,5-dimethyl-1-piperidyl]-N-[4-(3-chloro-4-cyano-phenoxy)cyclohexyl]pyridazine-3-carboxamide] | ≤ 0.1 | < 1 | 
CO[C@@H]1CN(c2ccc(C(=O)N[C@H]3CC[C@H](Oc4ccc(C#N)c(Cl)c4)CC3)nn2)CC[C@@H]1CN1CCC(n2nc(N3CCCc4cc(-c5cnn(C)c5)c(C(F)F)cc43)c3c2CCN(C(C)=O)C3)CC1 [Compound 219, 6-[4-[[4-[5-acetyl-3-[7-(difluoromethyl)-6-(1-methylpyrazol-4-yl)-3,4-dihydro-2H-quinolin-1-yl]-6,7-dihydro-4H-pyrazolo[4,3-c]pyridin-1-yl]-1-piperidyl]methyl]-3-methoxy-1-piperidyl]-N-[4-(3-chloro-4-cyano-phenoxy)cyclohexyl] pyridazine-3-carboxamide] | ≤ 0.1 | < 1 | 
CC(=O)N1CCc2c(c(N3CCCc4cc(-c5cnn(C)c5)c(C(F)F)cc43)nn2C2CCN([C@H]3CCN(c4ccc(C(=O)N[C@H]5CC[C@H](Oc6ccc(C#N)c(Cl)c6)CC5)nn4)C3)CC2)C1 [Compound 221, 6-[(3S)-3-[4-[5-acetyl-3-[7-(difluoromethyl)-6-(1-methylpyrazol-4-yl)-3,4-dihydro-2H-quinolin-1-yl]-6,7-dihydro-4H-pyrazolo[4,3-c]pyridin-1-yl]-1-piperidyl]pyrrolidin-1-yl]-N-[4-(3-chloro-4-cyano-phenoxy)cyclohexyl]pyridazine-3-carboxamide] | 1 to 100 | > 100 | 
CC(=O)N1CCc2c(c(N3CCCc4cc(-c5cnn(C)c5)c(C(F)F)cc43)nn2C2CCN([C@@H]3CCN(c4ccc(C(=O)N[C@H]5CC[C@H](Oc6ccc(C#N)c(Cl)c6)CC5)nn4)C3)CC2)C1 [Compound 222, 6-[(3R)-3-[4-[5-acetyl-3-[7-(difluoromethyl)-6-(1-methylpyrazol-4-yl)-3,4-dihydro-2H-quinolin-1-yl]-6,7-dihydro-4H-pyrazolo[4,3-c]pyridin-1-yl]-1-piperidyl]pyrrolidin-1-yl]-N-[4-(3-chloro-4-cyano-phenoxy)cyclohexyl] pyridazine-3-carboxamide] | 0.1 to 1 | < 1 | 
CC(=O)N1CCc2c(c(N3CCCc4cc(-c5cnn(C)c5)c(C(F)F)cc43)nn2[C@H]2CC[C@@H](OC3CN(c4ccc(C(=O)N[C@H]5CC[C@H](Oc6ccc(C#N)c(Cl)c6)CC5)nn4)C3)CC2)C1 [Compound 223, 6-[3-[4-[5-acetyl-3-[7-(difluoromethyl)-6-(1-methylpyrazol-4-yl)-3,4-dihydro-2H-quinolin-1-yl]-6,7-dihydro-4H-pyrazolo[4,3-c]pyridin-1-yl]cyclohexoxy]azetidin-1-yl]-N-[4-(3-chloro-4-cyano-phenoxy)cyclohexyl]pyridazine-3-carboxamide] | ≤ 0.1 | < 1 | 
CC(=O)N1CCc2c(c(N3CCCc4cc(-c5cnn(C)c5)c(C(F)F)cc43)nn2[C@H]2CC[C@H](OC3CN(c4ccc(C(=O)N[C@H]5CC[C@H](Oc6ccc(C#N)c(Cl)c6)CC5)nn4)C3)CC2)C1 [Compound 224, 6-[3-[4-[5-acetyl-3-[7-(difluoromethyl)-6-(1-methylpyrazol-4-yl)-3,4-dihydro-2H-quinolin-1-yl]-6,7-dihydro-4H-pyrazolo[4,3-c]pyridin-1-yl]cyclohexoxy]azetidin-1-yl]-N-[4-(3-chloro-4-cyanophenoxy)cyclohexyl]pyridazine-3-carboxamide] | ≤ 0.1 | < 1 | 
